{"source": "patent US20200230126A1", "about": "“TARGETED THERAPEUTICS” (TARVEDA THERAPEUTICS, INC., priority 2017, published 2020)", "key": {"[1]": {"assay": "Repeat dose GLP toxicity study in dogs", "type": "in vivo, dog", "details": "for AUC(0-t): in vivo, 20 mg/kg, at the HNSTD, read-out: exposure (AUCt)", "experimental": "(§1) The SDC-TRAP-0063 selected starting dose is 30 mg IV on D1, D8, and D15 of each 28-day cycle. ICH S9 recommends that a starting clinical dose for a first-in-human study should be either 1/10th of the STD10 in rodent toxicity studies or ⅙th of the HNSTD in non-rodent toxicity studies.\n(§2) Based on the findings in the repeat dose GLP toxicity study in rats, the dose of one-tenth the rat STD10 gives a Human Equivalent Dose (HED) of 0.48 mg/kg informing the SDC-TRAP-0063 first-in-human starting dose (Table 10). The calculation based on the dog highest non-severe toxic dose (HNSTD) of 20 mg/kg determined in the repeat dose GLP toxicity study in dogs is shown in Table 11 and results in a higher HED of 1.9 mg/kg substantiating that rat is the more sensitive species. The human starting dose of 0.48 mg/kg is equivalent to 18 mg/m^2. Assuming an average human weight of 60 kg, the starting dose translates to 29 mg or using an average body surface area of 1.7 m^2, the starting dose is 30 mg."}, "[2]": {"tested_on": "mice xenografts", "assay": "Anti-tumor efficacy in mice xenografts", "type": "in vivo, mouse", "details": "once weekly administration", "experimental": "(§3) Exposures achieved in these toxicology studies exceed the levels anticipated to show anti-tumor activity, based on anti-tumor efficacy determined in mice. The minimum dose for anti-tumor efficacy in mice xenografts was determined to be 20 mg/kg with once weekly administration. […] This exposure is similar to that in rats at the STD10 in the GLP toxicology study where the AUCt values determined were 107 and 68 μg·h/mL in males and female rats, respectively. The mouse exposure is lower that the exposure at the HNSTD in dogs, 181 and 183 μg·h/mL in male and female dogs, respectively. Using body surface area, the dog HNSTD for SDC-TRAP-0063 is 6.6-fold higher than the minimum dose for efficacy in the mouse while the rat STD10 is 3 fold higher."}, "[3]": {"assay": "Light sensitivity of the diluted solution", "type": "physicochemical", "details": "duration of 6 hours", "source_text": "The diluted solution is attached to an infusion set free of diethylhexyl-phthalate (DEHP) and containing a 0.2 micron filter."}, "[4]": {"tested_on": "tumor cells", "assay": "DNA double-strand breaks in tumor cells", "type": "cell-based", "details": "treatment of tumor cells", "experimental": "The histone H2A variant H2AX (γ-H2AX) is an indicator of DNA double-strand breaks and is a sensitive marker of DNA damage response. During the DNA damage response, double-stranded breaks (DSB) are generated that result in the rapid phosphorylation of γ-H2AX. […] These DSBs can be quantitated by measuring γ-H2AX levels. In in vivo pharmacology studies, PDc response to SDC-TRAP-0063 was assessed by immunostaining for γ-H2AX and was associated with anti-tumor activity of SDC-TRAP-0063. γ-H2AX has been used in clinical studies to monitor DNA damage induced by topoisomerase I inhibition, ionizing radiation, or Weel inhibition. During Phase 1 only, for patients who sign the provision of optional tumor biopsies and hair follicle collections, levels of γ-H2AX are evaluated in paired tumor biopsies and hair follicles to check for evidence of SDC-TRAP-0063-induced DNA damage response. Based on the mechanism of action of SDC-TRAP-0063, it would be expected that evidence of DNA damage, as measured by γ-H2AX and/or other markers of DNA damage, would be greater in tumor tissue compared to hair follicle. It is estimated that 10 high quality pairs of tumor biopsies and hair follicles are needed to adequately explore the relationship between SDC-TRAP-0063 treatment and DNA damage response."}, "[5]": {"assay": "Repeat dose GLP toxicity study in rats", "type": "in vivo, rat", "details": "for AUC(0-t): in vivo, 30 mg/kg, at the STD10 in the GLP toxicology study", "experimental": "as §1, §2"}, "[6]": {"assay": "pH-dependent equilibrium of lactone ring and open chain carboxylic acid form in solution", "type": "physicochemical", "source_text": "In solution, SDC-TRAP-0063 contains a lactone ring at pH-dependent equilibrium with the corresponding open chain carboxylic acid form."}, "[7]": {"assay": "Exposure in mice", "details": "mouse, in vivo, 20 mg/kg dose", "experimental": "as §3"}, "[8]": {"details": "mg/kg human dose multiplied by 37"}}, "data": [{"compound": "CCc1c2c(nc3ccc(OC(=O)N4CCC(CCn5ccc6cc(-n7c(O)nnc7-c7cc(C(C)C)c(O)cc7O)ccc65)CC4)cc13)-c1cc3c(c(=O)n1C2)COC(=O)[C@]3(O)CC", "note": "[SDC-TRAP-0063]", "values": [{"measurement": "HED of 1/6 Dog HNSTD", "setting": "[1]; 1/6 dog HNSTD divided by 1.8 (60 kg human)", "result": 1.9, "unit": "mg/kg"}, {"measurement": "1/6 Dog HNSTD", "setting": "[1]; dog", "result": 3.3, "unit": "mg/kg"}, {"measurement": "AUC(0-t)", "setting": "[1]; dog, female dogs", "result": 183, "unit": "µg·h/mL"}, {"measurement": "AUC(0-t)", "setting": "[1]; dog, male dogs", "result": 181, "unit": "µg·h/mL"}, {"measurement": "Dog 1/6 HNSTD", "setting": "[1]; mg/kg dose in dog multiplied by 20", "result": 67, "unit": "mg/m^2"}, {"measurement": "HED of 1/6 Dog HNSTD", "setting": "[1]; [8]", "result": 69, "unit": "mg/m^2"}, {"measurement": "Dog HNSTD", "setting": "[1]; repeat dose GLP toxicity study in dogs", "result": 20, "unit": "mg/kg"}, {"measurement": "dog HNSTD relative to the minimum dose for efficacy in the mouse", "setting": "[1]; using body surface area", "result": 6.6, "unit": "fold"}, {"measurement": "minimum dose for anti-tumor efficacy", "setting": "[2]", "result": 20, "unit": "mg/kg"}, {"measurement": "light sensitivity of the diluted solution", "setting": "[3]", "result": "not light sensitive"}, {"measurement": "DNA double-stranded breaks (DSBs)", "setting": "[4]", "result": "induces DNA DSBs"}, {"measurement": "HED of 1/10 Rat STD10", "setting": "[5]; 1/10 rat STD10 divided by 6.2 (60 kg human)", "result": 0.48, "unit": "mg/kg"}, {"measurement": "Rat 1/10 STD10", "setting": "[5]; mg/kg dose in rat multiplied by 6", "result": 18, "unit": "mg/m^2"}, {"measurement": "HED of 1/10 Rat STD10", "setting": "[5]; [8]", "result": 18, "unit": "mg/m^2"}, {"measurement": "1/10 Rat STD10", "setting": "[5]; rat", "result": 3.0, "unit": "mg/kg"}, {"measurement": "AUC(0-t)", "setting": "[5]; rat, female rats", "result": 68, "unit": "µg·h/mL"}, {"measurement": "AUC(0-t)", "setting": "[5]; rat, male rats", "result": 107, "unit": "µg·h/mL"}, {"measurement": "Rat STD10", "setting": "[5]; repeat dose GLP toxicity study in rats", "result": 30, "unit": "mg/kg"}, {"measurement": "rat STD10 relative to the minimum dose for efficacy in the mouse", "setting": "[5]; using body surface area", "result": 3, "unit": "fold"}, {"measurement": "pKa", "setting": "[6]", "result": 9.3}, {"measurement": "AUC(0-t)", "setting": "[7]", "result": 112, "unit": "µg·h/mL"}]}]}
